{
  "source": "patent US8394742B2",
  "about": "“Methods, compounds and compositions with genotype selective anticancer activity” (The Translation Genomics Research Institute, priority 2005, dated 2013)",
  "key": {"BxPC-3-vector cells": {"system": "BxPC-3-vector cells", "assay": "MTS based cell proliferation assay, BxPC-3-vector cells", "set-up": "species or system human", "conditions": "BxPC-3-vector (BxPc3Vc, pMSCVneo empty vector), 4 days", "method": "(§1) The inhibition of cell proliferation by library compounds was evaluated using the CellTiter 96 Non-Radioactive Cell Proliferation Assay following the protocol recommended by the manufacturer (Promega, Madison Wis.). Briefly, 2000 cells were seeded in each well of 96-well plates in 90 μl growth medium. Cells were allowed to attach overnight followed by addition of 10 μl of serially diluted compounds into the plates. After incubation for 4 days at 37° C. in a humidified incubator, 20 μl of a 20:1 mixture of (3-(4,5-dimethylthiazol-2-yl)-5-(3-carboxymethoxyphenyl)-2-(4-sulfophenyl)-2H-tetrazolium, inner salt (MTS, 2 mg/ml) and an electron coupling reagent, phenazine methosulfate (PMS, 0.92 mg/ml), was added to each well and incubated for 3 hours at 37° C. Absorbance was then measured using the Wallace Victor microplate reader at 490 nm (PerkinElmer, Wellesley, Mass.). Data were expressed as the percentage of cell growth calculated from the absorbance corrected for background absorbance. The surviving fraction of cells was determined by dividing the mean absorbance values of the treated samples by the mean absorbance values of the DMSO control.\n(§2) After generating the isogenic cell lines for the DPC4 gene, Applicants then carried out a screening process using the cell lines with the aim to identify compounds that selectively kill cells with deficient DPC4 function. […]"}, "IMR-90": {"system": "IMR-90", "assay": "MTS cell proliferation assay, IMR-90 normal fibroblasts", "type": "cell-based, human", "conditions": "IMR-90, even at 200 μM", "method": "as §1, §2"}, "[1]": {"system": "DPC4 isogenic cell lines (BxPC-3-vector and BxPC-3-DPC4)", "assay": "Pharmacological synthetic lethal screening in DPC4 isogenic cell lines", "type": "cell-based, human", "conditions": "reexpression isogenic cell lines", "source_text": "To find molecules that selectively kill cells with specific deficiencies, Applicants use cell proliferation assays to screen molecules libraries in a high throughput manner. These molecule libraries can be small organic compounds, siRNA libraries, antisense libraries and antibody/protein libraries. To carry out the screening in an efficient and cost-effective way, Applicants have designed a procedure for the screening of small organic compound libraries which consists of three steps, namely Toxicity Screen, Synthetic Lethal Screen and Selectivity Screen (FIG. 12). […]\nIn the Selectivity Screening, compounds are tested against cancer cell lines with a specific loss-of-function mutation and normal cells (HPDE6 and FORF-TERT). Depending on their approximate potency assessed in the Synthetic lethal Screening, compounds are tested in a range of concentrations (8 concentrations per agent) in Selectivity Screening. […]\nAfter generating the isogenic cell lines for the DPC4 gene, Applicants then carried out a screening process using the cell lines with the aim to identify compounds that selectively kill cells with deficient DPC4 function. […] In each round, the anti-proliferative activity of compounds was evaluated in different cell lines using the CellTiter 96 Non-Radioactive Cell Proliferation Assay (Promega). […]"}},
  "data": [
    {"compound": "O=C1c2ccccc2C(=O)c2c1ccc1c(=O)n(-c3ccccc3)[nH]c21", "note": "[UA62001, 2-phenyl-1H-Naphth [2,3-g]indazole-3,6,11(2H)-trione]", "values": [
      {"measurement": "IC50", "setting": "BxPC-3-vector cells", "value": "3.2 ± 0.45", "unit": "µM"},
      {"measurement": "IC50", "setting": "BxPC-3-vector cells; Homo sapiens, 96 h", "value": 3, "unit": "µM"},
      {"measurement": "growth inhibition", "setting": "IMR-90", "value": "little growth inhibition"},
      {"measurement": "selectivity against DPC4 deficiency", "setting": "[1]", "value": "DPC4 genotype selectivity"}
    ]}
  ]
}
